Test results published in patent publication US20240082125A1, “USE OF A SHORT CHAIN FATTY ACID AS ANTIDANDRUFF AGENT” (NANYANG TECHNOLOGICAL UNIVERSITY, priority 2020, published 2024).
Where “and” joins values, the source holds several entries; their conditions need not be identical. Equal values may be shown once.

Legend:
[1] = tested on: M. restricta ATCC MYA-4611; experiment: M. restricta growth assay, total cell numbers by SYTO9 fluorescence; type: cell-based, Malassezia restricta; conditions: for M. restricta (log10 total cell counts): 50 mM, after 72 hours, SYTO9, starting density 1×10^7 cells/ml, replicates #1-#3; for growth of Malassezia restricta: 30 mM, MD medium pH 6, FIG. 1
Experimental: (§1) M. restricta ATCC MYA-4611, S. epidermidis ATCC 12228, and C. acnes ATCC 6919 were purchased from ATCC. M. restricta was routinely cultured in modified Dixon (MD) medium (pH 6), composed of 36 g of Malt extract (Sigma 70167), 20 g of Dessicated Oxbile (Sigma 70168), 6 g of Bacto™ Peptone (BD 211677), 1% (v/v) Tween 40 (Sigma P1504), 0.2% (v/v) Oleic Acid (Fluka 75096), and 0.2% (v/v) Glycerol (Promega H5433) in 1 liter of dH2O. C. acnes and S. epidermidis were cultured in modified brain heart infusion (MBHI) medium (pH 7), containing 37 g of BHI base (Accumedia 7116B), 0.4% (v/v) of Tween-40 (Sigma P1504), 0.2% (v/v) of Oleic acid (Fluka 75096), and 0.2% (v/v) of Glycerol (Promega H5433) in 1 liter of dH2O. M. restricta and S. epidermidis were routinely grown under aerobic conditions, shaken at 200 rpm, and C. acnes was grown under anaerobic conditions. All organisms were grown at 33° C. Wherever required, media was supplemented with: sodium acetate (CH3COOH, Sigma Ref. 32319), sodium propionate ([…], Sigma Ref. P1880), sodium butyrate (CH3(CH2)2COOH, Sigma Ref. 303410), valeric acid (CH3(CH2)3COOH, Fluka Ref. 75054). For valeric acid, the pH in modified cell media was neutralized with NaOH (Sodium hydroxide, Sigma 283060).
M. restricta cells from 1 ml of the culture were harvested by centrifugation at 10,000×g for 5 minutes at room temperature. Cells were washed once, pelleted, and re-suspended in 0.9% NaCl solution. Equal volumes of the above cell suspension and SYTO 9 working stock (3 ul SYTO 9 component of the Live/Dead BacLight bacterial viability kit, ThermoFisher Scientific, L7012, diluted in 1 ml of 0.9% NaCl solution) were mixed well, incubated in dark for 10 minutes, and fluorescent intensity unit was measured in a Tecan microplate reader with excitation/emission wavelengths of 485/530 nm. A standard for correlation of fluorescence units and concentration was prepared using a fluorimeter and hemocytometer under a light microscope. This standard curve was used to calculate the total cell numbers.
(§2) M. restricta cells stored as glycerol stocks (30% glycerol in MD medium) were revived by plating on MD agar plates and incubated for 2-3 days at 33° C. A pre-culture was made from the lawn of cells grown on the agar plate. Cells from % of the plate was scrapped off, homogenized after suspending in 70 ml of MD medium in a 250 ml baffled erlenmeyer flask and incubated for 24 hours at 33° C. at 200 rpm. For experiments, 10^7 cell/ml was inoculated in fresh MD medium with or without the short chain fatty acids. Growth was monitored by measuring the cell density with SYTO 9 for up to 24 hours or 96 hours. C. acnes and S. epidermidis were inoculated into MBHI medium at starting cell density of OD600 0.05 and 0.25, respectively. Bacterial growth was measured by plating the serially diluted cultures on Brain Heart Infusion agar plates at different time points and colonies were counted after 72 hours for C. acnes and 24 hours for S. epidermidis.
(§3) M. restricta ATCC MYA-4611, S. epidermidis ATCC 12228 and C. acnes ATCC 6919 were purchased from ATCC. M. restricta were routinely cultured in Modified Dixon (MD) medium (pH 6), composed of 36 g of Malt extract (Sigma 70167), 20 g of Dessicated Oxbile (Sigma 70168), 6 g of Bacto™ Peptone (BD 211677), 1% (v/v) Tween 40 (Sigma P1504), 0.2% (v/v) Oleic Acid (Fluka 75096), and 0.2% (v/v) Glycerol (Promega H5433) in 1 liter of dH2O. C. acnes and S. epidermidis were cultured in modified brain heart infusion (MBHI) medium (pH 7), containing 37 g of BHI base (Accumedia 7116B), 0.4% (v/v) of Tween-40 (Sigma P1504), 0.2% (v/v) of Oleic acid (Fluka 75096), and 0.2% (v/v) of Glycerol (Promega H5433) in 1 liter of dH2O. M. restricta and S. epidermidis were routinely grown under aerobic conditions, shaken at 200 rpm, and C. acnes was grown under anaerobic conditions. All organisms were grown at 33° C.

C. acnes ATCC 6919 = experiment: C. acnes growth assay, colony forming units; type: cell-based, Cutibacterium acnes; conditions: for C. acnes (log10 CFUs/ml): 50 mM, after 72 hours, replicates #1-#3; for growth of C. acnes: 30 mM, MBHI medium pH 7, anaerobic, FIG. 2
Experimental: as §1, §2
(§4) Bacterial growth was quantified by plating the serially diluted cultures on Brain Heart Infusion agar plates at different time points and colonies were counted after 72 hours for C. acnes and 24 hours for Staphylococcus sp.
(§5) M. restricta ATCC MYA-4611, S. epidermidis ATCC 12228 and C. acnes ATCC 6919 were purchased from ATCC. M. restricta were routinely cultured in Modified Dixon (MD) medium (pH 6), composed of 36 g of Malt extract (Sigma 70167), 20 g of Dessicated Oxbile (Sigma 70168), 6 g of Bacto™ Peptone (BD 211677), 1% (v/v) Tween 40 (Sigma P1504), 0.2% (v/v) Oleic Acid (Fluka 75096), and 0.2% (v/v) Glycerol (Promega H5433) in 1 liter of dH2O. C. acnes and S. epidermidis were cultured in modified brain heart infusion (MBHI) medium (pH 7), containing 37 g of BHI base (Accumedia 7116B), 0.4% (v/v) of Tween-40 (Sigma P1504), 0.2% (v/v) of Oleic acid (Fluka 75096), and 0.2% (v/v) of Glycerol (Promega H5433) in 1 liter of dH2O. M. restricta and S. epidermidis were routinely grown under aerobic conditions, shaken at 200 rpm, and C. acnes was grown under anaerobic conditions. All organisms were grown at 33° C. Wherever required, media was supplemented with 50 mM of: sodium propionate ([…], Sigma Ref. P1880), sodium butyrate (CH3(CH2)2COOH, Sigma Ref. 303410), valeric acid (CH3(CH2)3COOH, Fluka Ref. 75054). For valeric acid, the pH in modified cell media was neutralized with NaOH (Sodium hydroxide, Sigma 283060).
(§6) M. restricta cells stored as glycerol stocks (30% glycerol in MD medium) were revived by plating on MD agar plates and incubated for 2-3 days at 33° C. A pre-culture was made from the lawn of cells grown on the agar plate.

[2] = tested on: S. epidermidis ATCC 12228; experiment: S. epidermidis growth assay, colony forming units; type: cell-based, Staphylococcus epidermidis; conditions: for S. epidermidis (log10 CFUs/ml): 50 mM, after 24 hours, replicates #1-#3; for growth of S. epidermidis: 30 mM, MBHI medium pH 7, aerobic, FIG. 3
Experimental: as §1, §2, §4, §5, §6

[3] = tested on: M. restricta ATCC MYA-4611; experiment: M. restricta cell viability by ATP estimation (BacTiterGlo); type: cell-based, Malassezia restricta; conditions: 50 mM, ATP in lysate of 24 hours grown cells, replicates #1-#3
Experimental: as §3, with “M. restricta and S. epidermidis were routinely grown under aerobic conditions, shaken at 200 rpm, and C. acnes was grown under anaerobic conditions. All organisms were grown at 33° C.” left out
M. restricta cells stored as glycerol stocks (30% glycerol in MD medium) were revived by plating on MD agar plates and incubated for 2-3 days at 33° C. […] Growth was monitored by measuring the cell density with SYTO 9 or by estimating the ATP concentration (see below) for up to 24 hours or 96 hours. […] Bacterial growth was measured by plating the serially diluted cultures on Brain Heart Infusion agar plates at different time points and colonies were counted after 72 hours for C. acnes and 24 hours for S. epidermidis.
Cellular ATP was measured using the BacTiterGlo Microbial cell viability (Promega) kit following manufacturers protocol. […]

Row | SMILES | M. restricta (log10 total cell counts) [1] | C. acnes (log10 CFUs/ml) (C. acnes ATCC 6919) | S. epidermidis (log10 CFUs/ml) [2] | growth of Malassezia restricta [1] | growth of C. acnes (C. acnes ATCC 6919) | growth of S. epidermidis [2] | M. restricta (Relative luminescence units) [3]
1 | CCCCCC(=O)OCC [EH_Cpo, ethyl caproate] | 6.80 log10 total cell counts and 6.69 log10 total cell counts and 6.74 log10 total cell counts | 9.94 log10 CFUs/ml and 8.47 log10 CFUs/ml and 8.00 log10 CFUs/ml | 5.55 log10 CFUs/ml and 5.54 log10 CFUs/ml and 5.66 log10 CFUs/ml |  |  |  | 
2 | CC(=O)[O-].[Na+] [acetate, sodium acetate] |  |  |  | No effect |  |  | 
3 | CCCCCCCC(=O)O [Cpy, caprylic acid] | 6.98 log10 total cell counts and 6.91 log10 total cell counts and 6.84 log10 total cell counts | 0.00 log10 CFUs/ml | 3.34 log10 CFUs/ml and 3.03 log10 CFUs/ml and 3.00 log10 CFUs/ml |  |  |  | 
4 | CCCC(=O)[O-].[Na+] [NaB, sodium butyrate] | 6.94 log10 total cell counts and 6.88 log10 total cell counts (2×) | 8.26 log10 CFUs/ml and 8.10 log10 CFUs/ml and 8.34 log10 CFUs/ml | 9.15 log10 CFUs/ml and 8.87 log10 CFUs/ml and 8.90 log10 CFUs/ml | completely inhibit | do not affect | do not affect | 
5 | CCCCCC(=O)O [Cpo, caproic acid] | 6.93 log10 total cell counts and 6.95 log10 total cell counts and 6.87 log10 total cell counts | 8.29 log10 CFUs/ml and 8.26 log10 CFUs/ml and 8.41 log10 CFUs/ml | 7.64 log10 CFUs/ml and 7.67 log10 CFUs/ml and 7.57 log10 CFUs/ml |  |  |  | 
6 | CCCCC(=O)[O-].[Na+] [NaV, sodium valerate] | 6.86 log10 total cell counts and 6.92 log10 total cell counts and 6.93 log10 total cell counts | 8.90 log10 CFUs/ml and 8.03 log10 CFUs/ml and 8.00 log10 CFUs/ml | 8.90 log10 CFUs/ml and 9.29 log10 CFUs/ml and 9.08 log10 CFUs/ml | completely inhibit | do not affect | do not affect | 
7 | CCCCCCCC(=O)OCC(O)CO (stereo not shown) [GM_Cpy, glyceryl mono caprylate] |  | 0.00 log10 CFUs/ml | 0.00 log10 CFUs/ml |  |  |  | 16700 Relative luminescence units and −1470 Relative luminescence units and −2030 Relative luminescence units
8 | CCC(=O)[O-].CCC(=O)[O-].[Zn+2] [Zn_Pro, zinc propionate] |  | 0.00 log10 CFUs/ml | 5.00 log10 CFUs/ml and 5.05 log10 CFUs/ml and 0.00 log10 CFUs/ml |  |  |  | 12500 Relative luminescence units and 11900 Relative luminescence units and 10300 Relative luminescence units
